{
  "source": "patent US20220323490A1",
  "about": "“PREVENTION OF DISEASES IN HONEYBEES” (Arkema Inc., priority 2019, published 2022)",
  "key": {"[1]": {"system": "honeybee (Apis mellifera) workers", "conditions": "for X3, best estimate of EC5 concentration (Molar hydrogen peroxide): cubic model solution; for EC5 (Percent): percent H2O2 calculated from X3; for Predicted LC50 Log10 Molar (±se) / Predicted LC50 (Molar) / Predicted LC50 (Percent): oral, in 2M sucrose; for Predicted LC50 Log10 Molar (±se): Probit analysis; for Predicted LC50 (Molar): inverse of log10 data; for Predicted LC50 (Percent): percent hydrogen peroxide", "protocol": "The twenty-four and forty-eight hour oral lethal concentration (LC50) of formulated hydrogen peroxide (HP) was determined for one-week and two-week old honeybee (Apis mellifera) workers fed a series of solutions of HP diluted in 2 Molar (M) sucrose.\nFive hydrogen peroxide (HP) solutions at 4.7, 3.7, 2.7, 1.7, 0.7 M HP in 2 Molar (M) sucrose, and a 0.00 M HP 2M sucrose solution were prepared using 35% food grade hydrogen peroxide, molecular grade sucrose (Sigma Aldrich, USA), and molecular grade water (Sigma Aldrich, USA).\nApproximately 200 bees were collected into several wooden cages, supplied with ad libitum HP-free 2M sucrose solution, water, and BeePro® supplemented pollen patty. Experimental trials commenced at seven and fourteen days after newly emerged honeybees were placed in cages.\nFollowing this, an EC5 was calculated by solving the cubic (sigmoidal) model for ‘x’ given an intercept term constrained to zero (concentration) and a ‘y’ value of 0.05."}, "[2]": {"assay": "Stability of hydrogen peroxide in sugar solution", "conditions": "ambient temperature"}, "[3]": {"conditions": "one-week old honeybees, 24 Hour"}, "[4]": {"conditions": "one-week old honeybees, 48 Hour"}, "[5]": {"conditions": "two-week old honeybees, 24 Hour"}, "[6]": {"conditions": "two-week old honeybees, 48 Hour"}},
  "note": "“Also recorded” adds a separate entry of the source. Read-outs that look alike come from different tables or passages of the source.",
  "data": [
    {"smiles": "OO", "note": "[hydrogen peroxide]", "values": [
      {"measurement": "Mean (±se) Mortality", "setting": "[1]; 0.7 Molar H2O2 in 2M sucrose, one-week old honeybees, 24 Hour", "value": "3.38 (1.38)"},
      {"measurement": "Mean (±se) Mortality", "setting": "[1]; 0.7 Molar H2O2 in 2M sucrose, one-week old honeybees, 48 Hour", "value": "9.63 (2.23)"},
      {"measurement": "Mean (±se) Mortality", "setting": "[1]; 0.7 Molar H2O2 in 2M sucrose, two-week old honeybees, 24 Hour", "value": "7.00 (2.19)"},
      {"measurement": "Mean (±se) Mortality", "setting": "[1]; 0.7 Molar H2O2 in 2M sucrose, two-week old honeybees, 48 Hour", "value": "12.75 (1.96)"},
      {"measurement": "Mean (±se) Mortality", "setting": "[1]; 1.7 Molar H2O2 in 2M sucrose, one-week old honeybees, 24 Hour", "value": "10.25 (1.42)"},
      {"measurement": "Mean (±se) Mortality", "setting": "[1]; 1.7 Molar H2O2 in 2M sucrose, one-week old honeybees, 48 Hour", "value": "18.13 (1.06)"},
      {"measurement": "Mean (±se) Mortality", "setting": "[1]; 1.7 Molar H2O2 in 2M sucrose, two-week old honeybees, 24 Hour", "value": "12.00 (2.32)"},
      {"measurement": "Mean (±se) Mortality", "setting": "[1]; 1.7 Molar H2O2 in 2M sucrose, two-week old honeybees, 48 Hour", "value": "16.25 (1.50)"},
      {"measurement": "Mean (±se) Mortality", "setting": "[1]; 2.7 Molar H2O2 in 2M sucrose, one-week old honeybees, 24 Hour", "value": "15.63 (1.19)"},
      {"measurement": "Mean (±se) Mortality", "setting": "[1]; 2.7 Molar H2O2 in 2M sucrose, one-week old honeybees, 48 Hour", "value": "19.88 (1.63)"},
      {"measurement": "Mean (±se) Mortality", "setting": "[1]; 2.7 Molar H2O2 in 2M sucrose, two-week old honeybees, 24 Hour", "value": "14.13 (2.12)"},
      {"measurement": "Mean (±se) Mortality", "setting": "[1]; 2.7 Molar H2O2 in 2M sucrose, two-week old honeybees, 48 Hour", "value": "19.50 (1.00)"},
      {"measurement": "Mean (±se) Mortality", "setting": "[1]; 3.7 Molar H2O2 in 2M sucrose, one-week old honeybees, 24 Hour", "value": "15.25 (1.70)"},
      {"measurement": "Mean (±se) Mortality", "setting": "[1]; 3.7 Molar H2O2 in 2M sucrose, one-week old honeybees, 48 Hour", "value": "21.50 (0.96)"},
      {"measurement": "Mean (±se) Mortality", "setting": "[1]; 3.7 Molar H2O2 in 2M sucrose, two-week old honeybees, 24 Hour", "value": "16.63 (1.92)"},
      {"measurement": "Mean (±se) Mortality", "setting": "[1]; 3.7 Molar H2O2 in 2M sucrose, two-week old honeybees, 48 Hour", "value": "20.75 (0.53)"},
      {"measurement": "Mean (±se) Mortality", "setting": "[1]; 4.7 Molar H2O2 in 2M sucrose, one-week old honeybees, 24 Hour", "value": "15.75 (1.53)"},
      {"measurement": "Mean (±se) Mortality", "setting": "[1]; 4.7 Molar H2O2 in 2M sucrose, one-week old honeybees, 48 Hour", "value": "21.38 (0.99)"},
      {"measurement": "Mean (±se) Mortality", "setting": "[1]; 4.7 Molar H2O2 in 2M sucrose, two-week old honeybees, 24 Hour", "value": "17.88 (1.51)"},
      {"measurement": "Mean (±se) Mortality", "setting": "[1]; 4.7 Molar H2O2 in 2M sucrose, two-week old honeybees, 48 Hour", "value": "20.13 (1.36)"},
      {"measurement": "honey bee mortality versus control group", "setting": "[1]; all tested concentrations (0.7-4.7 M HP in 2M sucrose), Wilcoxon multiple comparisons P<0.001", "value": "significantly greater than mortality of honeybees in control group"},
      {"measurement": "X3, best estimate of EC5 concentration (Molar hydrogen peroxide)", "setting": "[1]; [3]", "value": 0.21, "unit": "Molar"},
      {"measurement": "EC5 (Percent)", "setting": "[1]; [3]", "value": 0.57, "unit": "%"},
      {"measurement": "X3, best estimate of EC5 concentration (Molar hydrogen peroxide)", "setting": "[1]; [4]", "value": 0.15, "unit": "Molar"},
      {"measurement": "EC5 (Percent)", "setting": "[1]; [4]", "value": 0.41, "unit": "%"},
      {"measurement": "Predicted LC50 Log10 Molar (±se)", "setting": "[1]; [3]", "value": "0.29 (0.02) Log10 Molar"},
      {"measurement": "Predicted LC50 (Molar)", "setting": "[1]; [3]", "value": "1.95 (0.09) Molar"},
      {"measurement": "Predicted LC50 (Percent)", "setting": "[1]; [3]", "value": "5.30 (0.25) Percent"},
      {"measurement": "Predicted LC50 Log10 Molar (±se)", "setting": "[1]; [4]", "value": "−0.10 (0.03) Log10 Molar"},
      {"measurement": "Predicted LC50 (Molar)", "setting": "[1]; [4]", "value": "0.79 (0.05) Molar"},
      {"measurement": "Predicted LC50 (Percent)", "setting": "[1]; [4]", "value": "2.15 (0.14) Percent"},
      {"measurement": "Predicted LC50 Log10 Molar (±se)", "setting": "[1]; [5]", "value": "0.15 (0.03) Log10 Molar"},
      {"measurement": "Predicted LC50 (Molar)", "setting": "[1]; [5]", "value": "1.41 (0.10) Molar"},
      {"measurement": "Predicted LC50 (Percent)", "setting": "[1]; [5]", "value": "3.84 (0.28) Percent"},
      {"measurement": "Predicted LC50 Log10 Molar (±se)", "setting": "[1]; [6]", "value": "−0.25 (0.06) Log10 Molar"},
      {"measurement": "Predicted LC50 (Molar)", "setting": "[1]; [6]", "value": "0.56 (0.08) Molar"},
      {"measurement": "Predicted LC50 (Percent)", "setting": "[1]; [6]", "value": "1.52 (0.22) Percent"},
      {"measurement": "X3, best estimate of EC5 concentration (Molar hydrogen peroxide)", "setting": "[1]; [5]", "value": 0.20, "unit": "Molar"},
      {"measurement": "EC5 (Percent)", "setting": "[1]; [5]", "value": 0.54, "unit": "%"},
      {"measurement": "X3, best estimate of EC5 concentration (Molar hydrogen peroxide)", "setting": "[1]; [6]", "value": 0.15, "unit": "Molar"},
      {"measurement": "EC5 (Percent)", "setting": "[1]; [6]", "value": 0.41, "unit": "%"},
      {"measurement": "Stability (degradation) of hydrogen peroxide in sugar solution", "setting": "[2]; 0.1% and 1.0% H2O2 in 50% (w/w) sucrose, over 7 weeks", "value": "No degradation; also recorded: stable in a sugar solution"},
      {"measurement": "Hydrogen peroxide concentration in sugar solution", "setting": "[2]; nominal 0.1% H2O2 in 50% (w/w) sucrose, 10 days", "value": 0.134},
      {"measurement": "Hydrogen peroxide concentration in sugar solution", "setting": "[2]; nominal 0.1% H2O2 in 50% (w/w) sucrose, 27 days", "value": 0.134},
      {"measurement": "Hydrogen peroxide concentration in sugar solution", "setting": "[2]; nominal 0.1% H2O2 in 50% (w/w) sucrose, 51 days", "value": 0.130},
      {"measurement": "Hydrogen peroxide concentration in sugar solution", "setting": "[2]; nominal 0.1% H2O2 in 50% (w/w) sucrose, time 0", "value": 0.134},
      {"measurement": "Hydrogen peroxide concentration in sugar solution", "setting": "[2]; nominal 1.0% H2O2 in 50% (w/w) sucrose, 10 days", "value": 1.089},
      {"measurement": "Hydrogen peroxide concentration in sugar solution", "setting": "[2]; nominal 1.0% H2O2 in 50% (w/w) sucrose, 27 days", "value": 1.058},
      {"measurement": "Hydrogen peroxide concentration in sugar solution", "setting": "[2]; nominal 1.0% H2O2 in 50% (w/w) sucrose, 51 days", "value": 1.089},
      {"measurement": "Hydrogen peroxide concentration in sugar solution", "setting": "[2]; nominal 1.0% H2O2 in 50% (w/w) sucrose, time 0", "value": 1.077}
    ]}
  ]
}
